Laboratory results published in patent publication US9988358B2, “Phenazinium mediators” (Roche Diagnostics Operations, Inc., priority 2014, dated 2018).

Experiments:
Assay type in all cases: physicochemical
[1] = Formal redox potential by cyclic voltammetry in a test strip
Procedure: FIG. 1.) cyclic voltammograms of 1-(3-Carboxy-propionylamino)-5-ethyl-phenazinium (compound of formula (III)). A: Buffer pH 7.0 (blank current), B: 2 mM 1-(3-Carboxy-propionylamino)-5-ethyl-phenazinium in buffer, C: 2 mM 1-(3-Carboxy-propionylamino)-5-ethyl-phenazinium+1.2 mM ascorbic acid in buffer, D: 1.2 mM ascorbic acid in buffer.
The formal redox potential of a typical 1-Acylated amino phenazinium ethosulfate, 1-(3-Carboxy-propionylamino)-5-ethyl-phenazinium (compound of formula (III)), was measured vs. Ag/AgCl at a gold working electrode in a test strip. The cyclic voltammograms show, that a relatively low potential of −100 mV vs. Ag/AgCl is sufficient in order to oxidize the substance.
The quasi reversible oxidation and reduction of the mediator 1-(3-Carboxy-propionylamino)-5-ethyl-phenazinium occurs in a potential range between 0 mV and −500 mV vs. Ag/AgCl via two electron transfer. Ascorbic acid cannot be oxidized in this potential window and the current is similar to the blank current of the pure buffer solution.

[2] = Pot life of mediator formulations; conditions: 48 h vs t=0 in reaction mixture
Procedure: FIG. 3.) Pot life of mediator formulations. Mediators 1-(3-Carboxy-propionylamino)-5-ethyl-phenazinium and 1-(3-Carboxypropoxy)-5-ethylphenazinium were compared in a pot life experiment. Pot life of 1-(3-Carboxy-propionylamino)-5-ethyl-phenazinium (A: 0 h, B: 48 h) and 1-(3-Carboxypropoxy)-5-ethylphenazinium (C:=0 h, D: 48 h) are shown; Linear: linear regression.
Mediators 1-(3-Carboxy-propionylamino)-5-ethyl-phenazinium and 1-(3-Carboxypropoxy)-5-ethylphenazinium were compared in a pot life experiment. Performance of mediators was measured immediately after preparing the reaction mixture (t=0) and after 48 h. […] Therefore, both mediators seem to be very stable in a formulation.

[3] = Reactivity towards ascorbate, decrease of absorption over time; conditions: 0.23 mM compound, room temperature, 0.1 M triethylammonium acetate buffer pH 7, 5 fold molar excess of ascorbate
Procedure: 1-Acetylamino-5-methyl-phenazinium trifluormethanesulfonate, 1-Acetylamino-5-ethyl-phenazinium trifluoroacetate, and 1-(3-Carboxy-propionylamino)-5-ethyl-phenazinium (formula III) were compared regarding their reactivity towards ascorbate. To this end, each 0.23 mM of the respective compound was incubated at room temperature in 0.1 M triethylammonium acetate buffer (pH 7) in the presence of a 5 fold molar excess of ascorbate. Decrease of absorption at 517 nm (1-(3-Carboxy-propionylamino)-5-ethyl-phenazinium) or 512 nm (other two compounds) was recorded over time. Whereas with 1-Acetylamino-5-methyl-phenazinium, the absorption decreased by 12% per minute, the decrease slowed to 7% per minute for 1-Acetylamino-5-ethyl-phenazinium, and to less than 5% for 1-(3-Carboxy-propionylamino)-5-ethyl-phenazinium.

Structure (SMILES): CC[n+]1c2ccccc2nc2c(NC(=O)CCC(=O)O)cccc21 [1-(3-Carboxy-propionylamino)-5-ethyl-phenazinium]
- redox potential after adding ascorbic acid ([1]; 2 mM mediator + 1.2 mM ascorbic acid in buffer pH 7.0, cyclic voltammetry): −231 mV vs. Ag/AgCl
- formal redox potential ([1]; gold working electrode in a test strip, physiological conditions (0.9% NaCl), cyclic voltammetry): −236 mV vs. Ag/AgCl
- change in current after pot life [2]: no significant decrease in current
- decrease of absorption at 517 nm [3]: less than 5%

Structure (SMILES): CC[n+]1c2ccccc2nc2c(OCCCC(=O)O)cccc21 [1-(3-Carboxypropoxy)-5-ethylphenazinium, reference compound]
- change in current after pot life [2]: no significant decrease in current

Structure (SMILES): CC[n+]1c2ccccc2nc2c(NC(C)=O)cccc21.O=C([O-])C(F)(F)F [1-Acetylamino-5-ethyl-phenazinium, 1-Acetylamino-5-ethyl-phenazinium trifluoroacetate]
- decrease of absorption at 512 nm [3]: 7 % per minute

Structure (SMILES): CC(=O)Nc1cccc2c1nc1ccccc1[n+]2C.O=S(=O)([O-])C(F)(F)F [1-Acetylamino-5-methyl-phenazinium, 1-Acetylamino-5-methyl-phenazinium trifluormethanesulfonate]
- decrease of absorption at 512 nm [3]: 12 % per minute
